Laboratory results from ChEMBL document CHEMBL3301458, “MMV Malaria Box hERG screening”.
Active and inactive are the calls of the source. No rule for the calls is given here.

Experiments:
[1] = molecular target: T1, hERG (Kv11.1, KCNH2) (Homo sapiens, UniProt Q12809); experiment: in vitro
Description: MMV: Malaria Box compounds were tested for inhibition of the human ether a go-go related gene (hERG), Kv11.1 channel, using IonWorks 384-well patch clamp electrophysiology at 1.1uM (3 independent assay plates up to 12 cells per concentration).

[2] = molecular target: T1, hERG (Kv11.1, KCNH2); experiment: in vitro; remark: listed apart in the source
Description: MMV: Malaria Box compounds were tested for inhibition of the human ether a go-go related gene (hERG), Kv11.1 channel, using IonWorks 384-well patch clamp electrophysiology at 11.1uM (3 independent assay plates up to 12 cells per concentration).

T1 sequence (Q12809 whole entry): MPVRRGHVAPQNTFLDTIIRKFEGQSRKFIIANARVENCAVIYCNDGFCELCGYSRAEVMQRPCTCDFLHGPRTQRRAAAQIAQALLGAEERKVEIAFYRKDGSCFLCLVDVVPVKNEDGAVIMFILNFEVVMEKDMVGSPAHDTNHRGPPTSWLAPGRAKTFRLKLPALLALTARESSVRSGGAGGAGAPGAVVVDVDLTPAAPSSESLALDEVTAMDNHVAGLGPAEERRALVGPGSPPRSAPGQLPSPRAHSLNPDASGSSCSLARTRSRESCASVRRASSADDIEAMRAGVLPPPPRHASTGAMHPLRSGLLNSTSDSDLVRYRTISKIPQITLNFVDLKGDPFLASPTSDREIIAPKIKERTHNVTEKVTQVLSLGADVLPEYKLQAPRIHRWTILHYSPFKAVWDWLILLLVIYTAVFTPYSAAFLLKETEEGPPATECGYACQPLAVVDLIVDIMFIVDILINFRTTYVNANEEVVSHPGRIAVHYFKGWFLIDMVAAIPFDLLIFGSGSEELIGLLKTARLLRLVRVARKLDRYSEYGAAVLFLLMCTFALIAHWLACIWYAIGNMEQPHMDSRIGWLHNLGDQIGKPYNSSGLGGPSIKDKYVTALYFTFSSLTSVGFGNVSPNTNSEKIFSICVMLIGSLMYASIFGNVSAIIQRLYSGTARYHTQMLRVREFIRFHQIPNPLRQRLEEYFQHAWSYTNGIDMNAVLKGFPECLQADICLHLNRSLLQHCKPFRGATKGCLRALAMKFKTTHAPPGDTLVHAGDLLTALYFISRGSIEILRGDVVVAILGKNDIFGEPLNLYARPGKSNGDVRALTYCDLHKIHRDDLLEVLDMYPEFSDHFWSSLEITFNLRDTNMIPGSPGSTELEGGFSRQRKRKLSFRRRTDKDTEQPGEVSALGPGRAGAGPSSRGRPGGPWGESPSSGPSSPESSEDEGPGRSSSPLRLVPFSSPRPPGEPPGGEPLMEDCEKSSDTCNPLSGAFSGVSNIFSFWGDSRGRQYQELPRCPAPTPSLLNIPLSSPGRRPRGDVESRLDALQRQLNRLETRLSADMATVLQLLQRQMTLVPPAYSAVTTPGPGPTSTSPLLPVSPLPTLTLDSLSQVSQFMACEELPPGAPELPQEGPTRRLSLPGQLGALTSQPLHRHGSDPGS

Structure (SMILES) | inhibition at 1.1 µM [1] [%] | inhibition at 11.1 µM [2]
COc1ccc(C(=O)Nc2nonc2-c2ccc(OC)c(OC)c2)cc1Cl | 7 | 9% (inactive)
O=C(Nc1ccccc1O)c1ccc(Oc2cccc(C(=O)Nc3ccccc3O)c2)cc1 | -2 | 5% (inactive)
COc1ccccc1N1CCN(C(CNS(=O)(=O)c2ccc(Cl)cc2)c2cccnc2)CC1 (stereo not drawn) | 4 | 44%
O=C(Nc1ccc(CN2CCOCC2)cc1)c1ccc(-c2cc(Cl)ccc2Cl)o1 | 8 | 88% (active)
O=C(O)C1Cc2c([nH]c3ccccc23)C(c2ccc(Cl)cc2Cl)N1 (stereo not drawn) | -5 | 34%
COc1ccc(C(=O)NC(c2ccc(Cl)cc2Cl)c2cc(Cl)c3cccnc3c2O)cc1 (stereo not drawn) | -3 | -12% (inactive)
O=C(Nc1ccc(Cl)c(Cl)c1)Nc1ccc(Cl)c(Cl)c1 | 15 | 103% (active)
COc1ccc(N2CCN(C(CNC(=O)C3CCCCC3)c3ccc4c(c3)OCO4)CC2)cc1 (stereo not drawn) | 17 | 51% (active)
Cc1ccc(Cn2c(N3CCC(C(=O)NCc4cccs4)CC3)nc3ccccc32)cc1 | 105 | 103%
CCOc1cc(Cl)c(C(C)NC(=O)c2ccccc2)cc1OCC (stereo not drawn) | -6 | 7% (inactive)
COC(=O)c1ccc(C2C3=C(O)CC(c4ccc(F)cc4)CC3=Nc3ccccc3N2C(=O)c2ccccc2)cc1 (stereo not drawn) | 98 | 105%
CCCCC(O)(c1ccc(Cl)cc1)C(CN1CCOCC1)c1ccc(Cl)cc1 (stereo not drawn) | 18 | 35%
CCOC(=O)c1cnc2ccc(Cl)cc2c1NCCCN(C)C | 21 | 85% (active)
COc1ccc(-c2nc(NC(=O)CS(=O)(=O)c3ccc(F)cc3)sc2C)cc1 | 7 | 69% (active)
COc1ccc(-c2nonc2NC(=O)c2cccc(C)c2)cc1OC | 5 | -3% (inactive)
COCCNCC(O)Cn1c2ccc(Cl)cc2c2cc(Cl)ccc21 (stereo not drawn) | 14 | 83% (active)
Cc1ccc(N2C(=O)C3C(C2=O)C2(c4ccccc4)C(=O)C3(c3ccccc3)C(c3ccccc3)=C2c2ccccc2)cc1 (stereo not drawn) | 10 | -3% (inactive)
CCOc1cc2c(cc1OCC)C(c1cc(Cl)ccc1O)NCC2 (stereo not drawn) | 1 | 20% (inactive)
C[n+]1c2ccccc2nc2ccc(NCCO)cc21 | 8 | 11% (inactive)
CC(C)CCNCC(O)Cn1c2ccccc2c2ccccc21 (stereo not drawn) | 2 | 61% (active)
COc1ccccc1CNC(=O)CCn1c(=O)[nH]c2ccsc2c1=O | -1 | 5% (inactive)
Cn1c(C(=O)c2cccc3ccccc23)nc2ccccc21 | -4 | 1% (inactive)
CCCN(CCC)CC(O)COc1ccccc1C(=O)Nc1ccccc1 (stereo not drawn) | 57 | 98%
O=C(CCc1ccccc1)c1ccccc1OCC(O)CN1CCCCC1 (stereo not drawn) | 1 | 17% (inactive)
Cc1ccc(Cl)cc1N1CCN(CCCNC(=O)C2CCN(c3nc4ccccc4[nH]3)CC2)CC1 | 54 | 99%

Structure (SMILES) | inhibition at 1.1 µM [1] [%] | inhibition at 11.1 µM [2]
CCOc1ccccc1NC(=O)CN1CCN(C(=O)c2ccco2)CC1 | 13 | 35%
OC(CNCC1CCCO1)Cn1c2ccc(Cl)cc2c2cc(Cl)ccc21 (stereo not drawn) | 12 | 16% (inactive)
O=C(c1ccccc1F)N(Cc1ccc(Cl)cc1)c1ccccn1 | 7 | 22% (inactive)
CCC(c1ccccc1)c1nn2c(-c3cccs3)nnc2s1 (stereo not drawn) | 8 | 42%
CCCCCCc1cc2cc(-c3nc4ccccc4[nH]3)c(=Nc3ccccc3C)oc2cc1O | 2 | -1% (inactive)
Oc1c(C(Nc2ccccn2)c2cccc(Oc3ccccc3)c2)ccc2cccnc12 (stereo not drawn) | 20 | 97% (active)
OC1=C2C(=Nc3ccccc3SC2c2ccc(Br)cc2)c2ccccc21 (stereo not drawn) | 3 | 10% (inactive)
CCOC(=O)c1cnc2c(C)cc(C)cc2c1Nc1ccc(OC)c(OC)c1 | 26 | 18% (inactive)
COc1nc(Nc2ccc(C(C)C)cc2)nc(OC)n1 | -2 | 17% (inactive)
COc1cc(C(=O)Nc2ccc(-c3nc4ccccc4[nH]3)cc2)cc(OC)c1OC | -12 | 17% (inactive)
COc1ccc(C2c3ccc4ccccc4c3Oc3ncn(CCCn4ccnc4)c(=N)c32)cc1OC (stereo not drawn) | 23 | 25%
CCCCCn1c(=N)n(CC(O)COc2cccc(C)c2)c2ccccc21 (stereo not drawn) | 59 | 101%
CCN(CC)CCNc1ncnc2c1[nH]c1ccc(Br)cc12 | 91 | 102%
COc1cc(SC)ccc1C(=O)N1CCCC(C)C1 (stereo not drawn) | 16 | 8% (inactive)
Cc1ccc(NC(=O)Nc2cccc(Cl)c2)cc1F | -7 | -1% (inactive)
COc1cccc(NC(=O)[C@H](C(C)C)n2c(=O)[nH]c3ccccc3c2=O)c1 | 2 | 17% (inactive)
O=C(NC1CCN(Cc2ccccc2)CC1)c1cc(-c2cccnc2)nc2ccc(Cl)cc12 | 18 | 86% (active)
CCOC(=O)c1c[nH]c2c(CC)cccc2c1=O | 10 | 5% (inactive)
C=C(C)CCC(C)N1CCC(N2CCC(C(=O)NCCc3ccccc3)CC2)CC1 (stereo not drawn) | 8 | 71% (active)
CCOC(=O)C1=C(C)N=c2sc(=Cc3cc(Cl)ccc3O)c(=O)n2C1c1ccc(OC)cc1 (stereo not drawn) | 2 | 2% (inactive)
C=CCc1c(C)nc2ccccc2c1O | 11 | 11% (inactive)
O=C(CCl)NCCOc1ccc(Cl)cc1Cl | 1 | 62% (active)
CNCCCNc1ccnc2cc(Cl)ccc12 | -1 | 21% (inactive)
CCOc1cc(CNC(C)C(O)c2ccccc2)cc(Cl)c1OCC (stereo not drawn) | 2 | 48%
COc1ccc(C2N(C)c3ccccc3N2C)cc1 | -13 | -5% (inactive)

Structure (SMILES) | inhibition at 1.1 µM [1] [%] | inhibition at 11.1 µM [2]
CCOc1c(Br)cc(C2C(C(=O)OC)=CN(C)C=C2C(=O)OC)cc1OC | 3 | 21% (inactive)
Cc1ccc(C)c(-c2csc(Nc3ccc(C)c(C)c3)n2)c1 | 57 | 100%
CCc1c(C)c(=N)c2ccccc2n1C | 6 | 11% (inactive)
COc1ccc(-c2cn3c(C(=O)Nc4ccccc4Cl)c(-c4ccccc4)c4c3n2CCCC4)cc1 | 17 | 56% (active)
CCOc1ccc(-c2nonc2NC(=O)c2cccc(C)c2)cc1OCC | -1 | 0% (inactive)
Cc1sc(NC(=O)c2ccccc2)c(C(c2cccs2)N2CCN(c3ccccc3)CC2)c1C (stereo not drawn) | 9 | 9% (inactive)
Cc1cc(NC(=O)C2c3ccccc3C(=O)N(CC(C)C)C2c2cccs2)no1 (stereo not drawn) | 4 | 11% (inactive)
COc1ccc(Br)cc1C1Nc2ccc3ccccc3c2C2=C1C(=O)CC(c1ccccc1)C2 (stereo not drawn) | -2 | 5% (inactive)
CCCCCCc1cc(O)c2c3c(c(=O)oc2c1)CCC(C)C3 (stereo not drawn) | -5 | -7% (inactive)
COc1ccc2nc(C)cc(Nc3ccc(Cl)cc3)c2c1 | 67 | 111%
COc1cc2cc(C(=O)Nc3ccccc3)c(N)nc2cc1OC | 10 | 69% (active)
CCOc1cc(Br)c(C(C)NC(=O)c2cccc(OC)c2)cc1OCC (stereo not drawn) | -12 | 2% (inactive)
COc1ccc2nc(C)cc(Nc3ccccc3O)c2c1 | 18 | 57% (active)
COc1ccccc1C(=O)ON=C(N)Cc1cccc2ccccc12 | 2 | 34%
CCOC(=O)c1c(C)n(-c2ccc(Cl)cc2)c2ccc(OC(=O)C=Cc3ccccc3)cc12 | 2 | 9% (inactive)
O=C(NC1CCCC1)c1ccc(N2CCC(NCc3cccc(C(F)(F)F)c3)CC2)cc1 | 76 | 101%
CC(C)(C)c1ccc(C2CC3=Nc4ccccc4N(C(=O)c4ccccc4Cl)C(c4ccc(F)cc4)C3=C(O)C2)cc1 (stereo not drawn) | 30 | 88% (active)
COc1ccc(/C=C2/SC(=Nc3ccccc3)NC2=O)cc1 | 12 | 27%
O=C(NC1CCN(Cc2ccccc2)CC1)c1cc2nc(-c3ccc(Cl)s3)cc(C(F)(F)F)n2n1 | 21 | 60% (active)
O=C(NCCCN1CCC(N2CCCCC2)CC1)C1=Cc2cc(Br)ccc2OC1 | 5 | 89% (active)
O=C(NC1CCN(Cc2ccccc2)CC1)c1cc(-c2ccncc2)nc2ccc(Cl)cc12 | 14 | 72% (active)
Cc1cc(C=C2SC(=Nc3ccccc3)N(C3CCCC3)C2=O)c(C)n1-c1ccc(Cl)cc1 | 5 | -5% (inactive)
Cc1cc(Nc2ccc(OCc3ccccc3)cc2)nc2cc(O)ccc12 | -2 | 108% (active)
O=C(Nc1ccc(-c2nc3cc4ccccc4cc3[nH]2)cc1)c1cccc(Br)c1 | -1 | -2% (inactive)
